Assay [1] relates to Staphylococcus aureus. Briefly: Inhibitory activity against methicillin-resistant staphylococcus aureus(MRSA) evaluated manually. The class given is functional.
Assay [2] has as its system Bacteria. Briefly: Inhibitory activity against gram negative bacteria evaluated manually. The class given is functional.
The subject of the next assay is Staphylococcus sp. Briefly: (§1) Inhibitory activity against methicillin-resistant coagulase negative staphylococci (MRCNS) evaluated manually. The class given is functional.
Assay [3] has as its system Staphylococcus aureus. Briefly: Inhibitory activity against methicillin-sensitive staphylococcus aureus(MSSA) evaluated by computational method. The class given is functional.
Assay [4] concerns Enterococcus. Briefly: Inhibitory activity against enterococcus evaluated by computational method. It is filed as functional.
In assay [5] the test system is Enterococcus. Briefly: Inhibitory activity against enterococcus evaluated manually. It is filed as functional.
The test system of assay [6] is Staphylococcus aureus. Briefly: Inhibitory activity against methicillin-sensitive staphylococcus aureus(MSSA) evaluated manually. The class given is functional.
Assay [7] has as its system Bacteria. Briefly: The gram-negative activity is derived from eleven strains selected from seven enteric genera. It is filed as functional.
The species named for the next assay is Sus scrofa. Briefly: (§2) Susceptibility to DHP-I (swine kidney enzyme). It is filed as tissue-based.
Another assay deals with T1, MecA (Staphylococcus aureus, UniProt Q7DHH4).
T1 sequence (Q7DHH4 whole entry): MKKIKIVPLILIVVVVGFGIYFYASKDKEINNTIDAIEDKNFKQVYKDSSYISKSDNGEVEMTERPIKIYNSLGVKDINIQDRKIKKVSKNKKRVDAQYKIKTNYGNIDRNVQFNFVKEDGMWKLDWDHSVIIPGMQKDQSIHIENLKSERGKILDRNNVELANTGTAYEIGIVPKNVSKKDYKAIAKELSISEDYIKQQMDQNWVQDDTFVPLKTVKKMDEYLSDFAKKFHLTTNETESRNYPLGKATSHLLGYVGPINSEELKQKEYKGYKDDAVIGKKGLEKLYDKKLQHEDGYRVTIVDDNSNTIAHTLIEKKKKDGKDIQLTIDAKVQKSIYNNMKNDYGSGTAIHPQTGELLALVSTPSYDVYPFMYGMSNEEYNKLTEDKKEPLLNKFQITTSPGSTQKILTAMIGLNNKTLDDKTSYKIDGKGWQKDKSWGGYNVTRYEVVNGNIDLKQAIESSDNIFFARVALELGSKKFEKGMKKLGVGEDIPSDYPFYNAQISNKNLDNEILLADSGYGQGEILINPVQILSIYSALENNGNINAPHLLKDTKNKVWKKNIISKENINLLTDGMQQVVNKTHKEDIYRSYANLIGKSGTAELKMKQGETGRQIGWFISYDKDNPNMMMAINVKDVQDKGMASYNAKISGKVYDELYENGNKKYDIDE
Briefly: Binding affinity towards Penicillin-binding protein 2a from homogeneous MRSA COL strain using [3H]-radioligand.

The test system of assay [8] is Staphylococcus aureus. Briefly: Inhibitory activity against methicillin-resistant staphylococcus aureus(MRSA) evaluated by computational method. The class given is functional.
In assay [9] the test system is Staphylococcus. Briefly: Inhibitory activity against methicillin-resistant coagulase negative staphylococci (MRCNS) evaluated by computational method. It is filed as functional.
Assay [10] deals with Staphylococcus aureus. Briefly: Inhibitory activity against methicillin-resistant staphylococcus aureus(MRSA)evaluated by computational method. The class given is functional.
The test system of assay [11] is Staphylococcus. Briefly: Inhibitory activity against methicillin-resistant coagulase negative staphylococci (MRCNS)evaluated manually. The class given is functional.
Assay [12] deals with Staphylococcus aureus. Briefly: Inhibitory activity against methicillin-resistant staphylococcus aureus(MRSA)evaluated manually. The class given is functional.
Assay [13] has as its system Staphylococcus. Briefly: Inhibitory activity against methicillin-resistant coagulase negative staphylococci (MRCNS)evaluated by computational method. The class given is functional.
Assay [14] has as its target T2, Dipeptidase 1 (Sus scrofa) (UniProt P22412).
T2 sequence (whole entry): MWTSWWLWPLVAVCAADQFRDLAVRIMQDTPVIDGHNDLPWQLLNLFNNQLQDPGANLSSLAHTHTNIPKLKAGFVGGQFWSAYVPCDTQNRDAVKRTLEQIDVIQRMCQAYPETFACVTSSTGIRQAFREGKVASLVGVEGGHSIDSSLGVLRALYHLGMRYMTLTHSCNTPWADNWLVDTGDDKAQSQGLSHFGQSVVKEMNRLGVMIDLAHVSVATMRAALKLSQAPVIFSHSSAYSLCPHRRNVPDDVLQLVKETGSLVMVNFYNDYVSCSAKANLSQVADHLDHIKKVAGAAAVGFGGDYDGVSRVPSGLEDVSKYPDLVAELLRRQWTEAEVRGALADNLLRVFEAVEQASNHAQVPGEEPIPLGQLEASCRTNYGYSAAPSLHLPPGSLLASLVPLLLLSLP
The assay is described as §2. The class given is tissue-based.

Assay [15] deals with Staphylococcus. The assay is described as §1. The class given is functional.

Values after ≈ are worked out from the molar mass of the structure shown. Some results are limits rather than exact numbers.

Take `C[C@@H](O)[C@H]1C(=O)N2C(C(=O)[O-])=C(Sc3nc4cc(C[n+]5ccn(C)c5)ccc4s3)C[C@H]12`: the MIC stood at 2 µg/mL (≈ 4.38 µM) against Staphylococcus aureus [1]; 5.2 µg/mL (≈ 11.4 µM) in the assay on Bacteria [2]; 4 µg/mL (≈ 8.76 µM) against Staphylococcus sp.; 0.03 µg/mL (≈ 0.0657 µM) in the assay with Staphylococcus aureus [3]; 1.2 µg/mL (≈ 2.63 µM) against Enterococcus [4]; 1 µg/mL (≈ 2.19 µM) in the assay on Enterococcus [5]. The MIC was 0.02 µg/mL (≈ 0.0438 µM) against Staphylococcus aureus [6]; 3.4 µg/mL (≈ 7.45 µM) in the assay with Bacteria [7] (Bacteria, read-out: MIC); 1 µg/mL (≈ 2.19 µM) in the assay on Staphylococcus aureus [8]; 0.8 µg/mL (≈ 1.75 µM) in the assay on Staphylococcus [9]. The compound further registered a Susceptibility in the assay filed under Sus scrofa of 0.2. The compound also showed an IC50 at MecA of 0.876 µM.

As to `C[C@@H](O)[C@H]1C(=O)N2C(C(=O)[O-])=C(Sc3nc4ccccc4s3)[C@H](C)[C@H]12.[Na+]`, the MIC stood at 1.7 µg/mL against Staphylococcus aureus [10]; 0.06 µg/mL in the assay on Staphylococcus aureus [3]; 2.1 µg/mL in the assay with Enterococcus [4]; 4 µg/mL against Staphylococcus [11]; 4 µg/mL in the assay with Enterococcus [5]; 1 µg/mL with Staphylococcus aureus [12]. Moreover, the MIC with Staphylococcus aureus [6] stood at 0.02 µg/mL; in the assay on Staphylococcus [13], 1.6 µg/mL; against Bacteria [7] it was 9.7 µg/mL; in the assay with Bacteria [7] (Bacteria, read-out: MIC) it was 5.6 µg/mL. This compound came in with a Susceptibility in assay [14] of 0.2. On MecA, the IC50 was 5.02 µM.

Consider `C[C@@H](O)[C@H]1C(=O)N2C(C(=O)O)=C(SCCNC=N)C[C@H]12` [IMIPENEM ANHYDROUS], for which the minimum inhibitory concentration (MIC) is 64 µg/mL (≈ 214 µM) with Staphylococcus aureus [1]; 0.4 µg/mL (≈ 1.34 µM) with Bacteria [2]; > 64 µg/mL with Staphylococcus [15]; 0.02 µg/mL (≈ 0.0668 µM) in the assay with Staphylococcus aureus [3]; 1.1 µg/mL (≈ 3.67 µM) with Enterococcus [4]; 1.3 µg/mL (≈ 4.34 µM) against Enterococcus [5]. The MIC in the assay with Staphylococcus aureus [6] was 0.02 µg/mL (≈ 0.0668 µM); in the assay with Bacteria [7] (Bacteria, read-out: MIC) it was 0.6 µg/mL (≈ 2 µM); with Staphylococcus aureus [8], 35.9 µg/mL (≈ 120 µM); against Staphylococcus [9], 63.7 µg/mL (≈ 213 µM). Further, the Susceptibility in the assay filed under Sus scrofa came to 1.

What is called MIC is the lowest concentration found to suppress growth. A word on the IC50: it is the midpoint of a concentration-inhibition curve. Higher therefore signals weaker potency in that assay.

Source of the values: ChEMBL document CHEMBL1128761, “Benzothiazolylthio carbapenems: potent anti-MRSA agents” (Bioorg Med Chem Lett, 1995).
